Experimental data: publication PMC5474674, “D-BMAP18 Antimicrobial Peptide Is Active In vitro, Resists to Pulmonary Proteases but Loses Its Activity in a Murine Model of Pseudomonas aeruginosa Lung Infection” (Frontiers in Chemistry, 2017)
Where a SMILES comes first, the peptide text is derived from it.

Legend:
[1] = cited from earlier work
Description: D-BMAP18 was synthesized to provide a molecule more resistant to enzymatic cleavage. The stability of D-BMAP18 was tested in murine BAL fluid.

P. aeruginosa RP73 = assay type: in vivo, mouse; conditions: 10 mg/kg intratracheal, day 1
Description: C57/Bl6NCrl mice (n = 8/group) were intratracheally challenged with 1 × 10^7 cells P. aeruginosa RP73 clinical strain, and 5 min later a single dose of D-BMAP18 at different concentrations (0.5, 1, and 2 mg/kg) was intratracheally administrated. Sterile distilled water alone or tobramycin [10 mg/kg] (Sigma-Aldrich S.r.l.), were used respectively as negative and positive control. […] Subsequently, lungs were homogenized (24,000 rpm) on ice in 1 ml of sterile PBS by using Ultra-Turrax T25-Basic homogenizer (IKA-Werke GmbH & Co. KG, Germany). Ten-fold serial dilutions of lung homogenates were plated on MH agar (Oxoid SpA), and the number of colony-forming units (CFU) was counted after incubation at 37°C for 24 h.

| SMILES | degradation in murine BAL after 10 min [1] | time within which peptide is degraded by pulmonary proteases in murine BAL [1] | effect on bacterial load in murine lungs (P. aeruginosa RP73) | mortality (P. aeruginosa RP73; 1 out of 8 mice) |
| --- | --- | --- | --- | --- |
| CC(C)C[C@H](NC(=O)[C@H](CCCCN)NC(=O)[C@H](CCCCN)NC(=O)[C@H](Cc1ccccc1)NC(=O)[C@H](CC(C)C)NC(=O)[C@H](CCCCN)NC(=O)[C@H](CCCCN)NC(=O)[C@H](Cc1ccccc1)NC(=O)[C@H](CCCCN)NC(=O)[C@H](CCCCN)NC(=O)[C@H](CCCNC(=N)N)NC(=O)[C@H](Cc1ccccc1)NC(=O)[C@H](CCCNC(=N)N)NC(=O)[C@H](CCCCN)NC(=O)[C@H](Cc1ccccc1)NC(=O)[C@H](CCCNC(=N)N)NC(=O)CN)C(=O)N[C@@H](CO)C(N)=O [L-BMAP18] (H-GRFKRFRKKFKKLFKKLS-NH2) | most of the L-BMAP-18 was digested | ≤ 20 min |  |  |
| NC[C@H]1O[C@H](O[C@H]2[C@H](O)[C@@H](O[C@H]3O[C@H](CO)[C@@H](O)[C@H](N)[C@H]3O)[C@H](N)C[C@@H]2N)[C@H](N)C[C@@H]1O [tobramycin] |  |  | weak effect | 12.5% |
